# Assay results published in publication PMC7219735, “Crystal structure of Thermus thermophilus methylenetetrahydrofolate dehydrogenase and determinants of thermostability” (PLoS ONE, 2020).
# Biological target: T1, T. thermophilus methylenetetrahydrofolate dehydrogenase (TtMTHFD) (Thermus thermophilus, UniProt Q5SJ94)
# T1 construct: gene folD; His-tagged (pQtev, tag removal not mentioned), expressed in E. coli BL21(DE3), 33 kDa, dimer; 277 residues in the model, one chain per asymmetric unit
# T1 sequence (Q5SJ94 1-282): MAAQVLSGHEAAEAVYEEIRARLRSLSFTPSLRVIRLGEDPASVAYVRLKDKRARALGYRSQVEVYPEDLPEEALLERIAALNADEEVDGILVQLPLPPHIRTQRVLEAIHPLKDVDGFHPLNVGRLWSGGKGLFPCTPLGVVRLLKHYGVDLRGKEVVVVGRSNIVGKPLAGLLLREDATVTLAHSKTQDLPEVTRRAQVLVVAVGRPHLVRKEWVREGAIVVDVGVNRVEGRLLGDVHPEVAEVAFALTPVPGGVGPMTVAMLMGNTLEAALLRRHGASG
# Experiment: X-ray crystal structure, […] A
# Conditions: crystals from 800 mM potassium sodium tartrate, 100 mM HEPES pH 7.5; nucleotide binding domain; NADP+ addition not described
structure (smiles),measurement,value
NC(=O)c1ccc[n+]([C@@H]2O[C@H](COP(=O)(O)OP(=O)(O)OC[C@H]3O[C@@H](n4cnc5c(N)ncnc54)[C@H](OP(=O)(O)O)[C@@H]3O)[C@@H](O)[C@H]2O)c1 [NADP^+],"X-ray crystal structure, 2.15 A",we were able to unambiguously identify and fit a molecule of NADP^+
